# Measured values from patent US20240196899A1, “PESTICIDAL MIXTURES” (priority 2021, published 2024).
# What was measured:
# [1] = test system: Cotton Leafworm, S. littoralis; experiment: Insecticidal % control against Cotton Leafworm, S. littoralis, Colby synergy; format: in vivo, Spodoptera littoralis; conditions: 72 hours after treatment
# Procedure: (§1) Colby's method is used to determine if synergy exists for a combination of active ingredients. According to Colby, the expected action (E) of active ingredients A+B is:
# (§2) [formula] • where E=expected efficacy, A and B=the efficacy of two active ingredients A and B at a given dose.
# (§3) When the percentage of control observed (O) for the combination is greater than the expected (E) percentage, there is a synergistic effect. The synergism ratio (R) is calculated as the ratio between the […].
# (§4) The insecticidal compounds A (Novaluron) and B (mix partner) are formulated as equivalent suspension concentrates to eliminate the effects of differing formulation inerts on biological activity. Efficacy of the insecticidal compositions is evaluated with reference to a scale of 0% to 100% in comparison with untreated control plots. 0 means no damage and 100 means complete destruction of the harmful pests.
# (§5) Likewise following experimentations were done on other mixtures of novaluron on various pests, the result of which are summarized in the below tables: […]
# B. tabaci = experiment: Insecticidal % control against B. tabaci, Colby synergy; format: in vivo, Bemisia tabaci; conditions: Table 7, 72 hours after treatment
# Procedure: as §1, §2, §3, §4, §5
# T. urticae = experiment: Insecticidal % control against T. urticae, Colby synergy; format: in vivo, Tetranychus urticae
# Procedure: as §1, §2, §3, §4, §5
# H. halys = experiment: Insecticidal % control against H. halys, Colby synergy; format: in vivo, Halyomorpha halys; conditions: Table 20 B; 144 hours after treatment; 50 ppm
# Procedure: as §1, §2, §3, §4, §5
# A. gossypii = experiment: Insecticidal % control against A. gossypii, Colby synergy; format: in vivo, Aphis gossypii; conditions: 96 hours after treatment
# Procedure: as §1, §2, §3, §4, §5
# S. frugiperda = experiment: Insecticidal % control against S. frugiperda, Colby synergy; format: in vivo, Spodoptera frugiperda; conditions: 120 hours after treatment
# Procedure: as §1, §2, §3, §4, §5
# [2] = test system: Spodoptera littoralis larvae; experiment: Larval weight gain (LWG) of S. littoralis on treated castor bean leaves; format: in vivo; conditions: Table 3
# Procedure: (§6) The experiments were conducted by applying commercially available compositions of Novaluron (Rimon®) and methoxyfenozide (Runner®) alone or together. The compositions were diluted with water to the stated concentration of the active compound.
# (§7) The following active ingredients and their mixtures were evaluated: • Novaluron: 0.01 mg a.i./liter • Methoxyfenozide: 0.01 mg a.i./liter • Novaluron+Methoxyfenozide 0.01 mg a.i./liter+0.01 mg a.i./liter
# (§8) To evaluate the insecticidal control of novaluron and methoxyfenozide alone and in a binary mixture, castor bean leaves were treated with the above listed treatments. The treated leaves were exposed for 4-day feeding to 3rd-instar Spodoptera littoralis and the larvae were exposed for additional 4 days on untreated leaves. Larval mortality was determined at day 4 and 8. The treatments were composed of 3-5 replicates of 10 larvae each.
# Larval weight gain (LWG) was also measured in order to determine the effectiveness of the mixture of novaluron and methoxyfenozide when compared to the solo application of novaluron and methoxyfenozide.
# Table 3 below summarizes the larval weight gain (LWG) (compared to the control), that was determined 4 days after treatment for the mixture of novaluron and methoxyfenozide.
# T. absoluta = experiment: Insecticidal % control against T. absoluta, Colby synergy; format: in vivo, Tuta absoluta; conditions: 72 hours after treatment
# Procedure: as §1, §2, §3, §4, §5
# [3] = test system: Spodoptera littoralis larvae; experiment: Larval mortality of S. littoralis fed on treated castor bean leaves (tank mix novaluron + methoxyfenozide), Colby synergy; format: in vivo; conditions: Table 1, 0.01 mg a.i./L of each active
# Procedure: as §1, §2, §3
# A representative experiment was conducted to evaluate the insecticidal control of novaluron, a compound II, namely methoxyfenozide as well as a mixture of novaluron and methoxyfenozide against Spodoptera littoralis larvae.
# as §6, §7, §8
# F. occidentalis = experiment: Insecticidal % control against F. occidentalis, Colby synergy; format: in vivo, Frankliniella occidentalis
# Procedure: as §1, §2, §3, §4, §5
# M. persicae = experiment: Insecticidal % control against M. persicae, Colby synergy; format: in vivo, Myzus persicae
# Procedure: as §1, §2, §3, §4, §5
structure (smiles),measurement,setting,value
"O=C(NC(=O)c1c(F)cccc1F)Nc1ccc(OC(F)(F)C(F)OC(F)(F)F)c(Cl)c1 (single isomer, unassigned; (+)) [Novaluron, (+)-I-[3-chloro-4-(1,1,2-trifluoro-2-trifluoromethoxyethoxy)phenyl]-3-(2,6-difluorobenzoyl) urea]",Observed % control (O),"[1]; Table 5 B, 0.02 ppm",0%
same,Observed % control (O),"[1]; Table 8, 12 ppm",75%
same,Observed % control (O),"[1]; Table 10 B, 0.02 ppm",30%
same,Observed % control (O),"[1]; Table 11, 12 ppm",25%
same,Observed % control (O),"[1]; Table 12, 12 ppm",75%
same,Observed % control (O),"[1]; Table 13, 12 ppm",75%
same,Observed % control (O),"[1]; Table 16, 0.04 ppm",73%
same,Observed % control (O),"[1]; Table 20 A, 0.02 ppm",0%
same,Observed % control (O),"[1]; Table 20 A, 0.2 ppm",5%
same,Observed % control (O),"[1]; Table 21, 12 ppm",12.5%
same,Observed % control (O),B. tabaci; 7 ppm,23.1%
same,Observed % control (O),B. tabaci; 35 ppm,25.2%
same,Observed % control (O),"T. urticae; Table 6 C, 48 hours after treatment, 6 ppm",0%
same,Observed % control (O),"T. urticae; Table 6 D, 72 hours after treatment, 6 ppm",0%
same,Observed % control (O),"T. urticae; Table 6 E, 7 days after treatment, 6 ppm",6.1%
same,Observed % control (O),"T. urticae; Table 14 A, 48 hours after treatment, 2.4 ppm",12%
same,Observed % control (O),"T. urticae; Table 14 A, 48 hours after treatment, 120 ppm",8%
same,Observed % control (O),"T. urticae; Table 14 B, 72 hours after treatment, 2.4 ppm",13%
same,Observed % control (O),"T. urticae; Table 14 B, 72 hours after treatment, 120 ppm",10%
same,Observed % control (O),"T. urticae; Table 14 C, 7 days after treatment, 2.4 ppm",15%
same,Observed % control (O),"T. urticae; Table 14 C, 7 days after treatment, 120 ppm",17%
same,Observed % control (O),H. halys,12.5%
same,Observed % control (O),"A. gossypii; Table 18 A, 10 ppm",16.2%
same,Observed % control (O),"A. gossypii; Table 19 A, 100 ppm",16.5%
same,Observed % control (O),"S. frugiperda; Table 5 A, 0.01 ppm",27%
same,Observed % control (O),"S. frugiperda; Table 5 A, 0.05 ppm",40%
same,Observed % control (O),"S. frugiperda; Table 9, 0.01 ppm",27%
same,Observed % control (O),"S. frugiperda; Table 9, 0.025 ppm",30%
same,Observed % control (O),"S. frugiperda; Table 10 A, 0.025 ppm",30%
same,LWG % rel. Control,"[2]; 4 days after treatment, 0.01 mg a.i./L of each active",108 % rel. Control
same,effect on the weight gain of the Spodoptera littoralis larvae,[2]; applied alone,neither novaluron nor methoxyfenozide alone have any effect on the weight gain
same,Observed % control (O),"T. absoluta; Table 2, 300 ppm",0%
same,Observed % control (O),"T. absoluta; Table 5 C, 0.1 ppm",16.7%
same,Observed % control (O),"T. absoluta; Table 5 C, 1 ppm",16.7%
same,Observed % control (O),"T. absoluta; Table 5 C, 300 ppm",16.7%
same,"Larval mortality, % (observed) 4 d","[3]; 3rd-instar larvae, 4-day feeding on treated leaves, day 4",3.5%
same,"Larval mortality, % (observed) 8 d","[3]; 4 days on treated then 4 days on untreated leaves, day 8",20%
same,Observed % control (O),"F. occidentalis; Table 4 A, 48 hours after treatment, 5.3 ppm",14.0%
same,Observed % control (O),"F. occidentalis; Table 4 B, 72 hours after treatment, 5.3 ppm",20.0%
same,Observed % control (O),"F. occidentalis; Table 4 C, 7 days after treatment, 5.3 ppm",40.0%
same,Observed % control (O),"F. occidentalis; Table 5 D, 48 hours after treatment, 3.5 ppm",4.0%
same,Observed % control (O),"F. occidentalis; Table 5 E, 72 hours after treatment, 3.5 ppm",4.0%
same,Observed % control (O),"F. occidentalis; Table 5 F, 7 days after treatment, 3.5 ppm",8.0%
same,Observed % control (O),"F. occidentalis; Table 18 B, 72 hours after treatment, 5 ppm",10.0%
same,Observed % control (O),"F. occidentalis; Table 18 B, 72 hours after treatment, 500 ppm",10.0%
same,Observed % control (O),"F. occidentalis; Table 20 C, 48 hours after treatment, 1 ppm",16.0%
same,Observed % control (O),"F. occidentalis; Table 20 D, 72 hours after treatment, 1 ppm",50.0%
same,Observed % control (O),"F. occidentalis; Table 20 D, 72 hours after treatment, 100 ppm",50.0%
same,Observed % control (O),"F. occidentalis; Table 20 E, 7 days after treatment, 1 ppm",74.0%
same,Observed % control (O),"F. occidentalis; Table 20 E, 7 days after treatment, 100 ppm",84.0%
same,Observed % control (O),"M. persicae; Table 6 A, 72 hours after treatment, 1 ppm",34%
same,Observed % control (O),"M. persicae; Table 6 B, 7 days after treatment, 1 ppm",38.8%
same,Observed % control (O),"M. persicae; Table 15 A, 48 hours after treatment, 50 ppm",14%
same,Observed % control (O),"M. persicae; Table 15 B, 72 hours after treatment, 0.5 ppm",30%
same,Observed % control (O),"M. persicae; Table 15 B, 72 hours after treatment, 50 ppm",44%
same,Observed % control (O),"M. persicae; Table 17 A, 72 hours after treatment, 0.2 ppm",56%
same,Observed % control (O),"M. persicae; Table 17 B, 7 days after treatment, 0.2 ppm",62.5%
same,Observed % control (O),"M. persicae; Table 19 B, 7 days after treatment, 500 ppm",72.9%
